Drawing on patent publication US12479831B2, “Substituted N(-methyl-D3)pyridazine-3-carboxamide or M-(methyl-D3)-nicotinamide compounds as IL-12, IL-23 and/or IFNα modulators” (BRISTOL-MYERS SQUIBB COMPANY, priority 2020, dated 2025), this text covers IC50 for 25 molecules.

The assay concerns IFNα-Induced STAT Phosphorylation in Human Whole Blood. The experiment in a line: IFNα-Induced STAT Phosphorylation in Human Whole Blood. It is filed as cell-based. Particulars: 1 h incubation with compound, 1000 U/mL recombinant human IFNα A/D for 15 min, pSTAT5 (pY694) median fluorescence intensity in CD3 positive population, read-out: hWB IC50. As for the experimental part:
IFNα-Induced STAT Phosphorylation in Human Whole Blood
After an hour long incubation with compound, human whole blood (drawn with either EDTA or ACD-A as anti-coagulant) was stimulated with 1000 U/mL recombinant human IFNα A/D (R&D Systems 11200-2) for 15 min. The stimulation was stopped by adding Fix/Lyse buffer (BD 558049). Cells were stained with a CD3 FITC antibody (BD 555916), washed, and permeabilized on ice using Perm III buffer (BD 558050). […] The amount of pSTAT5 expression was quantitated by median fluorescence intensity after gating on the CD3 positive population.
IFNα-Induced STAT Phosphorylation in Human Whole Blood Inhibition Data
The IC50 is the concentration at which inhibition is half-maximal. In the case of `[2H]C([2H])([2H])NC(=O)c1nnc(NC(=O)C2CC2)cc1Nc1cccc(-c2ccc(C(C)(O)CC)nn2)c1OC` (stereo not shown) [Example 23, 6-(cyclopropanecarboxamido)-4-((3-(6-(2-hydroxybutan-2-yl)pyridazin-3-yl)-2-methoxyphenyl)amino)-N-(methyl-d3)pyridazine-3-carboxamide], the IC50 came to 32 nM.

Consider `[2H]C([2H])([2H])NC(=O)c1nnc(NC(=O)C2CC2)cc1Nc1cc(F)cc(-c2cnc(C(C)O)cn2)c1OC` (stereo not shown) [Example 24, 6-(cyclopropanecarboxamido)-4-((5-fluoro-3-(5-(1-hydroxyethyl)pyrazin-2-yl)-2-methoxyphenyl)amino)-N-(methyl-d3)pyridazine-3-carboxamide], for which the IC50 is 167 nM.

With `[2H]C([2H])([2H])NC(=O)c1nnc(NC(=O)C2CC2)cc1Nc1cccc(-c2ncc(C(C)(O)CF)cn2)c1OC` (stereo not shown) [Example 26, 6-(cyclopropanecarboxamido)-4-((3-(5-(1-fluoro-2-hydroxypropan-2-yl)pyrimidin-2-yl)-2-methoxyphenyl)amino)-N-(methyl-d3)pyridazine-3-carboxamide], the IC50 is 16 nM. On to `[2H]C([2H])([2H])NC(=O)c1nnc(NC(=O)C2CC2)cc1Nc1cccc(-c2ncc(C3(O)CCC3)cn2)c1OC` [Example 27, 6-(cyclopropanecarboxamido)-4-((3-(5-(1-hydroxycyclobutyl)pyrimidin-2-yl)-2-methoxyphenyl)amino)-N-(methyl-d3)pyridazine-3-carboxamide], for which the 50% inhibitory concentration (IC50) was 63 nM. As for `[2H]C([2H])([2H])NC(=O)c1nnc(NC(=O)C2CC2)cc1Nc1cc(F)cc(-c2ncc(C3(O)CCC3)cn2)c1OC` [Example 28, 6-(cyclopropanecarboxamido)-4-((5-fluoro-3-(5-(1-hydroxycyclobutyl)pyrimidin-2-yl)-2-methoxyphenyl)amino)-N-(methyl-d3)pyridazine-3-carboxamide], the figure is 170 nM. As for `[2H]C([2H])([2H])NC(=O)c1nnc(NC(=O)C2CC2)cc1Nc1cccc(-c2ncc(C(O)(CF)CF)cn2)c1OC` [Example 29, 6-(cyclopropanecarboxamido)-4-((3-(5-(1,3-difluoro-2-hydroxypropan-2-yl)pyrimidin-2-yl)-2-methoxyphenyl)amino)-N-(methyl-d3)pyridazine-3-carboxamide], the figure is 39 nM. `[2H]C([2H])([2H])NC(=O)c1nnc(NC(=O)C2CC2)cc1Nc1cccc(-c2ncc(C3(O)CCOC3)cn2)c1OC` (stereo not shown) [Example 31, 6-(cyclopropanecarboxamido)-4-((3-(5-(3-hydroxytetrahydrofuran-3-yl)pyrimidin-2-yl)-2-methoxyphenyl)amino)-N-(methyl-d3)pyridazine-3-carboxamide]: the half-maximal inhibitory concentration (IC50) came out at 24 nM. Consider `[2H]C([2H])([2H])NC(=O)c1nnc(NC(=O)C2CC2)cc1Nc1cc(F)cc(-c2ncc(C(C)(O)CF)cn2)c1OC` (stereo not shown) [Example 32, 6-(cyclopropanecarboxamido)-4-((5-fluoro-3-(5-(1-fluoro-2-hydroxypropan-2-yl)pyrimidin-2-yl)-2-methoxyphenyl)amino)-N-(methyl-d3)pyridazine-3-carboxamide], for which the IC50 is 71 nM. As for `[2H]C([2H])([2H])NC(=O)c1nnc(NC(=O)C2CC2)cc1Nc1cccc(-c2cnc(C3(O)COC3)cn2)c1OC` [Example 33, 6-(cyclopropanecarboxamido)-4-((3-(5-(3-hydroxyoxetan-3-yl)pyrazin-2-yl)-2-methoxyphenyl)amino)-N-(methyl-d3)pyridazine-3-carboxamide], the figure is 43 nM. The value for `[2H]C([2H])([2H])NC(=O)c1nnc(NC(=O)C2CC2)cc1Nc1cccc(-c2cnc(C3(O)CCOC3)cn2)c1OC` (stereo not shown) [Example 34, 6-(cyclopropanecarboxamido)-4-((3-(5-(3-hydroxytetrahydrofuran-3-yl)pyrazin-2-yl)-2-methoxyphenyl)amino)-N-(methyl-d3)pyridazine-3-carboxamide] was 36 nM. The value for `[2H]C([2H])([2H])NC(=O)c1nnc(NC(=O)C2CC2)cc1Nc1cccc(-c2cnc(C(C)(O)CF)cn2)c1OC` (stereo not shown) [Example 35, 6-(cyclopropanecarboxamido)-4-((3-(5-(1-fluoro-2-hydroxypropan-2-yl)pyrazin-2-yl)-2-methoxyphenyl)amino)-N-(methyl-d3)pyridazine-3-carboxamide] was 107 nM; that for `[2H]C([2H])([2H])NC(=O)c1nnc(NC(=O)C2CC2)cc1Nc1cccc(-c2cnc(C(=O)N3CC[C@@H](F)C3)cn2)c1OC` [Example 37, (R)-6-(cyclopropanecarboxamido)-4-((3-(5-(3-fluoropyrrolidine-1-carbonyl)pyrazin-2-yl)-2-methoxyphenyl)amino)-N-(methyl-d3)pyridazine-3-carboxamide] was 97 nM. Turning to `[2H]C([2H])([2H])NC(=O)c1nnc(NC(=O)C2CC2)cc1Nc1cccc(-c2cnc(C(=O)N3CCOCC3)cn2)c1OC` [Example 38, 6-(cyclopropanecarboxamido)-4-((2-methoxy-3-(5-(morpholine-4-carbonyl)pyrazin-2-yl)phenyl)amino)-N-(methyl-d3)pyridazine-3-carboxamide], the half-inhibitory concentration (IC50) stood at 44 nM. As for `[2H]C([2H])([2H])NC(=O)c1nnc(NC(=O)C2CC2)cc1Nc1cccc(-c2cnc(C(=O)NC)cn2)c1OC` [Example 39, 6-(cyclopropanecarboxamido)-4-((2-methoxy-3-(5-(methylcarbamoyl)pyrazin-2-yl)phenyl)amino)-N-(methyl-d3)pyridazine-3-carboxamide], the figure is 218 nM. As for `[2H]C([2H])([2H])NC(=O)c1nnc(NC(=O)C2CC2)cc1Nc1cccc(-c2cnc(C(=O)N3CCC3)cn2)c1OC` [Example 40, 4-((3-(5-(azetidine-1-carbonyl)pyrazin-2-yl)-2-methoxyphenyl)amino)-6-(cyclopropanecarboxamido)-N-(methyl-d3)pyridazine-3-carboxamide], the figure is 360 nM; as for `[2H]C([2H])([2H])NC(=O)c1nnc(NC(=O)C2CC2)cc1Nc1cc(F)cc(-c2ccc(C(=O)N(C)C)nn2)c1OC` [Example 42, 6-(cyclopropanecarboxamido)-4-((3-(6-(dimethylcarbamoyl)pyridazin-3-yl)-5-fluoro-2-methoxyphenyl)amino)-N-(methyl-d3)pyridazine-3-carboxamide], 56 nM; as for `[2H]C([2H])([2H])NC(=O)c1nnc(NC(=O)C2CC2)cc1Nc1cc(F)cc(-c2ccc(C(=O)N(C)C)cn2)c1OC` [Example 44, 6-(cyclopropanecarboxamido)-4-((3-(5-(dimethylcarbamoyl)pyridin-2-yl)-5-fluoro-2-methoxyphenyl)amino)-N-(methyl-d3)pyridazine-3-carboxamide], 109 nM. The value for `[2H]C([2H])([2H])NC(=O)c1nnc(NC(=O)C2CC2)cc1Nc1cccc(-c2ccc(C(=O)N3CCCC3)cn2)c1OC` [Example 45] was 218 nM; that for `[2H]C([2H])([2H])NC(=O)c1nnc(NC(=O)C2CC2)cc1Nc1cccc(-c2ncc(C(=O)N3CCCC3)cn2)c1OC` [Example 47, 6-(cyclopropanecarboxamido)-4-((2-methoxy-3-(5-(pyrrolidine-1-carbonyl)pyrimidin-2-yl)phenyl)amino)-N-(methyl-d3)pyridazine-3-carboxamide] was 126 nM; that for `[2H]C([2H])([2H])NC(=O)c1nnc(NC(=O)C2CC2)cc1Nc1cccc(-c2ncc(C(=O)N3CCC3)cn2)c1OC` [Example 48, 4-((3-(5-(azetidine-1-carbonyl)pyrimidin-2-yl)-2-methoxyphenyl)amino)-6-(cyclopropanecarboxamido)-N-(methyl-d3)pyridazine-3-carboxamide] was 118 nM.

Consider `[2H]C([2H])([2H])NC(=O)c1nnc(NC(=O)C2CC2)cc1Nc1cccc(-c2nccc(C(=O)N(C)C)n2)c1OC` [Example 49, 6-(cyclopropanecarboxamido)-4-((3-(4-(dimethylcarbamoyl)pyrimidin-2-yl)-2-methoxyphenyl)amino)-N-(methyl-d3)pyridazine-3-carboxamide], for which the half-inhibitory concentration (IC50) turned out to be 327 nM. As for `[2H]C([2H])([2H])NC(=O)c1nnc(NC(=O)C2CC2)cc1Nc1cccc(-c2ncc(C(=O)N(C)CC)cn2)c1OC` [Example 50, 6-(Cyclopropanecarboxamido)-4-((3-(5-(ethyl(methyl)carbamoyl)pyrimidin-2-yl)-2-methoxyphenyl)amino)-N-(methyl-d3)pyridazine-3-carboxamide], the figure is 41 nM; as for `[2H]C([2H])([2H])NC(=O)c1nnc(NC(=O)C2CC2)cc1Nc1cccc(-c2ncc(C(=O)N(C)C3CC3)cn2)c1OC` [Example 52, 6-(cyclopropanecarboxamido)-4-((3-(5-(cyclopropyl(methyl)carbamoyl)pyrimidin-2-yl)-2-methoxyphenyl)amino)-N-(methyl-d3)pyridazine-3-carboxamide], 50 nM; as for `[2H]C([2H])([2H])NC(=O)c1nnc(NC(=O)C2CC2)cc1Nc1cc(F)cc(-c2ncc(C(=O)N(C)CC)cn2)c1OC` [Example 54, 6-(cyclopropanecarboxamido)-4-((3-(5-(ethyl(methyl)carbamoyl)pyrimidin-2-yl)-5-fluoro-2-methoxyphenyl)amino)-N-(methyl-d3)pyridazine-3-carboxamide], 80 nM. As for `[2H]C([2H])([2H])NC(=O)c1nnc(NC(=O)C2CC2)cc1Nc1cccc(-c2ncc(C3CCOC3)cn2)c1OC` (stereo not shown) [Example 55, 6-(Cyclopropanecarboxamido)-4-((2-methoxy-3-(5-(tetrahydrofuran-3-yl)pyrimidin-2-yl)phenyl)amino)-N-(methyl-d3)pyridazine-3-carboxamide], the figure is 47 nM.
